# From US20020137929A1, “1 - (3-heterocyclylphenyl) isothiourea, -isourea, -guanidine and -amidine herbicidal agents” (Intellectual Property Department, BASF Aktiengesellschaft, priority 1998, published 2002)
# What was measured:
# [1] = system: ABUTH (Velvetleaf); experiment: Postemergence herbicidal evaluation; type: in vivo, Abutilon theophrasti; details: postemergence
# Summary of the method: (§1)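 ~2-wk seedlings; postemergence spray, 40 psi; vehicle 1:1 acetone:water + 0.5% Tween 20; rate ≈0.0156–0.500 kg/ha; greenhouse hold; scored 4–5 wk after treatment, 0–9 scale vs control; repeat tests averaged.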
# [2] = system: AMBEL (Ragweed, Common); experiment: Postemergence herbicidal evaluation; type: in vivo, Ambrosia artemisifolia; details: postemergence
# Summary of the method: as §1
# [3] = system: ECHCG (Barnyardgrass); experiment: Postemergence herbicidal evaluation; type: in vivo, Echinochloa crus-galli; details: postemergence
# Summary of the method: as §1
# [4] = system: SETVI (Foxtail, Green); experiment: Postemergence herbicidal evaluation; type: in vivo, Setaria viridis; details: postemergence
# Summary of the method: as §1
# [5] = system: GLXMAW (Soybean, Williams); experiment: Postemergence herbicidal evaluation; type: in vivo, Glycine max, (L.) Merr. cv Williams; details: postemergence
# Summary of the method: as §1
# [6] = system: ORYSAT (Rice, Tebonnet); experiment: Postemergence herbicidal evaluation; type: in vivo, Oryza sativa, (L.) Tebonnet; details: postemergence
# Summary of the method: as §1
# [7] = system: TRZAWR (Wheat, Winter, cv Riband); experiment: Postemergence herbicidal evaluation; type: in vivo, Triticum aestivum; details: postemergence
# Summary of the method: as §1
# [8] = system: ABUTH (Velvetleaf); experiment: Preemergence herbicidal evaluation; type: in vivo, Abutilon theophrasti; details: rated 4-5 weeks after treatment
# Summary of the method: (§2)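 Scores (0–9) reflect visual comparison with control plants for stand, vigor, malformation, size and chlorosis. Compound was applied to the soil after sowing, before emergence, as an aqueous acetone spray (about 0.0156–0.500 kg/ha), and cups were kept in a greenhouse for 4–5 weeks.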
# [9] = system: CASOB (Sicklepod); experiment: Preemergence herbicidal evaluation; type: in vivo, Cassia obtusifolia; details: rated 4-5 weeks after treatment
# Summary of the method: as §2
# [10] = system: SETVI (Foxtail, Green); experiment: Preemergence herbicidal evaluation; type: in vivo, Setaria viridis; details: rated 4-5 weeks after treatment
# Summary of the method: as §2
# [11] = system: MOOVA (Monochoria); experiment: Preemergence weed control under flooded paddy conditions; type: in vivo, Monochoria vaginalis; details: rated 3-4 weeks after treatment
# Summary of the method: (§3)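 Ratings on a 0-9 visual scale cover stand, vigor, malformation, size, chlorosis and overall appearance relative to a control, taken three to four weeks post-treatment. Application was into flood water over freshly sown silt loam at roughly 0.0313 to 0.500 kg/ha.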
# [12] = system: SAGPY (Arrowhead (Pygmaea)); experiment: as above; type: in vivo, Sagittaria pygmaea; details: rated 3-4 weeks after treatment
# Summary of the method: as §3
# [13] = system: CYPIR (Rice Flatsedge); experiment: Postemergence weed control under flooded paddy conditions; type: in vivo, Cyperus iria; details: postemergence weeds, 3-4 weeks after treatment
# Summary of the method: (§4)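 With weeds 3 to 5 cm tall and rice at the 1.5 to 2.5 leaf stage, containers were flooded and water held 1.5 to 3 cm above soil. Compounds in 50/50 v/v aqueous/acetone went into the flood water at about 0.0313 to 0.500 kg/ha a.i. Effects were visually rated 0–9 against controls after three to four weeks in the greenhouse.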
# [14] = system: SAGPY (Arrowhead (Pygmaea)); experiment: as above; type: in vivo, Sagittaria pygmaea; details: postemergence weeds, 3-4 weeks after treatment
# Summary of the method: as §4
smiles,measurement,setting,value
"CCOC(=O)CN1C(=O)C(F)SC1=Nc1cc(-n2c(=O)cc(C(F)(F)F)n(C)c2=O)c(F)cc1Cl (centres unmarked) [Compound 11, Ethyl 2-{{2-chloro-5-[3,6-dihydro-3-methyl-2,6-dioxo-4-(trifluoromethyl)-1(2H)-pyrimidinyl]-4-fluorophenyl}imino}-5-fluoro-4-oxo-3-thiazolidineacetate]",ABUTH herbicidal rating,[1]; rate 0.0156 kg/ha,9.0
same,ABUTH herbicidal rating,[1]; rate 0.0313 kg/ha,9.0
same,ABUTH herbicidal rating,[1]; rate 0.0625 kg/ha,9.0
same,ABUTH herbicidal rating,[1]; rate 0.1250 kg/ha,9.0
same,AMBEL herbicidal rating,[2]; rate 0.0156 kg/ha,1.0
same,AMBEL herbicidal rating,[2]; rate 0.0313 kg/ha,9.0
same,AMBEL herbicidal rating,[2]; rate 0.0625 kg/ha,9.0
same,AMBEL herbicidal rating,[2]; rate 0.1250 kg/ha,9.0
same,ECHCG herbicidal rating,[3]; rate 0.0156 kg/ha,0.0
same,ECHCG herbicidal rating,[3]; rate 0.0313 kg/ha,0.0
same,ECHCG herbicidal rating,[3]; rate 0.0625 kg/ha,6.0
same,ECHCG herbicidal rating,[3]; rate 0.1250 kg/ha,7.0
same,SETVI herbicidal rating,[4]; rate 0.0156 kg/ha,0.0
same,SETVI herbicidal rating,[4]; rate 0.0313 kg/ha,0.0
same,SETVI herbicidal rating,[4]; rate 0.0625 kg/ha,6.0
same,SETVI herbicidal rating,[4]; rate 0.1250 kg/ha,9.0
same,GLXMAW herbicidal rating,[5]; rate 0.0156 kg/ha,5.0
same,GLXMAW herbicidal rating,[5]; rate 0.0313 kg/ha,7.5
same,GLXMAW herbicidal rating,[5]; rate 0.0625 kg/ha,9.0
same,GLXMAW herbicidal rating,[5]; rate 0.1250 kg/ha,9.0
same,ORYSAT herbicidal rating,[6]; rate 0.0156 kg/ha,2.0
same,ORYSAT herbicidal rating,[6]; rate 0.0313 kg/ha,2.0
same,ORYSAT herbicidal rating,[6]; rate 0.0625 kg/ha,3.0
same,ORYSAT herbicidal rating,[6]; rate 0.1250 kg/ha,3.0
same,TRZAWR herbicidal rating,[7]; rate 0.0156 kg/ha,4.5
same,TRZAWR herbicidal rating,[7]; rate 0.0313 kg/ha,4.5
same,TRZAWR herbicidal rating,[7]; rate 0.0625 kg/ha,5.5
same,TRZAWR herbicidal rating,[7]; rate 0.1250 kg/ha,6.0
same,ABUTH preemergence herbicidal rating,[8]; rate 0.0156 kg/ha,7.5
same,ABUTH preemergence herbicidal rating,[8]; rate 0.0313 kg/ha,8.5
same,ABUTH preemergence herbicidal rating,[8]; rate 0.0625 kg/ha,8.5
same,ABUTH preemergence herbicidal rating,[8]; rate 0.1250 kg/ha,9.0
same,ABUTH preemergence herbicidal rating,[8]; rate 0.2500 kg/ha,9.0
same,CASOB preemergence herbicidal rating,[9]; rate 0.0156 kg/ha,0.0
same,CASOB preemergence herbicidal rating,[9]; rate 0.0313 kg/ha,0.0
same,CASOB preemergence herbicidal rating,[9]; rate 0.0625 kg/ha,0.0
same,CASOB preemergence herbicidal rating,[9]; rate 0.1250 kg/ha,0.0
same,CASOB preemergence herbicidal rating,[9]; rate 0.2500 kg/ha,5.5
same,SETVI preemergence herbicidal rating,[10]; rate 0.0156 kg/ha,0.0
same,SETVI preemergence herbicidal rating,[10]; rate 0.0313 kg/ha,1.0
same,SETVI preemergence herbicidal rating,[10]; rate 0.0625 kg/ha,7.0
same,SETVI preemergence herbicidal rating,[10]; rate 0.1250 kg/ha,7.5
same,SETVI preemergence herbicidal rating,[10]; rate 0.2500 kg/ha,9.0
same,Herbicidal rating MOOVA,[11]; 0.0313 kg/ha,0.0
same,Herbicidal rating MOOVA,[11]; 0.0625 kg/ha,1.0
same,Herbicidal rating MOOVA,[11]; 0.1250 kg/ha,4.0
same,Herbicidal rating MOOVA,[11]; 0.2500 kg/ha,7.0
same,Herbicidal rating SAGPY,[12]; 0.0313 kg/ha,0.0
same,Herbicidal rating SAGPY,[12]; 0.0625 kg/ha,0.0
same,Herbicidal rating SAGPY,[12]; 0.1250 kg/ha,0.0
same,Herbicidal rating SAGPY,[12]; 0.2500 kg/ha,0.0
same,Herbicidal rating CYPIR,[13]; rate 0.0313 kg/ha,0.0
same,Herbicidal rating CYPIR,[13]; rate 0.0625 kg/ha,0.0
same,Herbicidal rating CYPIR,[13]; rate 0.1250 kg/ha,0.0
same,Herbicidal rating CYPIR,[13]; rate 0.2500 kg/ha,0.0
same,Herbicidal rating SAGPY,[14]; rate 0.0313 kg/ha,0.0
same,Herbicidal rating SAGPY,[14]; rate 0.0625 kg/ha,0.0
same,Herbicidal rating SAGPY,[14]; rate 0.1250 kg/ha,0.0
same,Herbicidal rating SAGPY,[14]; rate 0.2500 kg/ha,0.0
